Laboratory results reported in US20190381086A1, “INHIBITION OF NEDDYLATION USING GLYCYL-tRNA SYNTHETASE INHIBITORS” (The Scripps Research Institute, priority 2015, published 2019).
pIC50: −log10 of the molar value.

How the values were obtained:
[1] = mouse, in vivo
Experimental: (§1) GlySA (DMSO stock solution diluted by saline) were administrated to three month old female BALB CJ mice via tail vein injections. […] The GlySA concentration tested were 0.4 mg/kg (10 μM), 2.0 mg/kg (50 μM), 4.0 mg/kg (100 μM). N=3 for each group.
as §1, with “Animal experiments were also performed to study the use of GlySA to treat cancer. A maximum tolerant dosage assay of GlySA was conducted. GlySA (DMSO” for “GlySA (DMSO”

[2] = system: OVCAR-5; test: NCI 60 Cell One-Dose Screen; type: cell-based, human; settings: OVCAR-5, Ovarian Cancer; single dose 10^-5 M
[3] = system: HT29; test: NCI 60 Cell One-Dose Screen; type: cell-based, human; settings: HT29, Colon Cancer; single dose 10^-5 M
[4] = system: MCF7; test: NCI 60 Cell One-Dose Screen; type: cell-based, human; settings: MCF7, Breast Cancer; single dose 10^-5 M
[5] = system: SK-MEL-28; test: NCI 60 Cell One-Dose Screen; type: cell-based, human; settings: SK-MEL-28, Melanoma; single dose 10^-5 M
[6] = system: OVCAR-3; test: NCI 60 Cell One-Dose Screen; type: cell-based, human; settings: OVCAR-3, Ovarian Cancer; single dose 10^-5 M
[7] = system: HOP-92; test: NCI 60 Cell One-Dose Screen; type: cell-based, human; settings: HOP-92, Non-Small Cell Lung Cancer; single dose 10^-5 M
[8] = system: SF-268; type: cell-based; settings: SF-268, CNS Cancer
[9] = system: OVCAR-5; type: cell-based; settings: OVCAR-5, Ovarian Cancer
[10] = system: SR; type: cell-based; settings: Leukemia
[11] = system: OVCAR-4; type: cell-based; settings: OVCAR-4, Ovarian Cancer
[12] = system: T-47D; type: cell-based; settings: Breast Cancer
[13] = system: NCI/ADR-RES; type: cell-based; settings: Ovarian Cancer
[14] = system: MOLT-4; type: cell-based; settings: MOLT-4, Leukemia
[15] = system: HS 578T; type: cell-based; settings: Breast Cancer
[16] = system: KM12; type: cell-based; settings: KM12, Colon Cancer
[17] = system: NCI-H460; type: cell-based; settings: NCI-H460, Non-Small Cell Lung Cancer
[18] = system: PC-3; type: cell-based; settings: PC-3, Prostate Cancer
[19] = system: HOP-92; type: cell-based; settings: HOP-92, Non-Small Cell Lung Cancer
[20] = system: TK-10; type: cell-based
[21] = system: SNB-75; type: cell-based; settings: SNB-75, CNS Cancer
[22] = system: SF-539; type: cell-based; settings: SF-539, CNS Cancer
[23] = system: NCI-H522; type: cell-based; settings: NCI-H522, Non-Small Cell Lung Cancer
[24] = system: SK-MEL-28; type: cell-based; settings: SK-MEL-28, Melanoma
[25] = system: A498; type: cell-based; settings: A498, Renal Cancer
[26] = system: M14; type: cell-based; settings: M14, Melanoma
[27] = system: UO-31; type: cell-based; settings: UO-31, Renal Cancer
[28] = biological target: S. aureus GlyRS (UniProt Q2FY08); settings: read-out: IC50 (the inhibitor concentration at which GlyRS activity is reduced by half); cited from earlier work
[29] = Homo sapiens, read-out: LC50 (the source's name)

With `NCC(=O)NS(=O)(=O)OC[C@H]1O[C@@H](n2cnc3c(N)ncnc32)[C@H](O)[C@@H]1O` [GlySA, glycylsulfamoyladenosine] the “survival of mice after four injections” value [1] was “all were alive”, the “Growth inhibition count (%)” value [2] was 0.2916% and the “Growth inhibition count (%)” value [3] was 6.002%. For the same compound, the “Growth inhibition count (%)” value [4] was 8.271%, the “Growth inhibition count (%)” value [5] was 8.357% and the “Growth inhibition count (%)” value [6] was 10.05%. The “Growth inhibition count (%)” value [7] was 17.26%, the GI50 ([8]; Homo sapiens) was 501 nM and the LC50/GI50 [8] was >199.5. The GI50 ([9]; Homo sapiens) was 741 nM, the CC50 [9, 29] was > 100 µM and the LC50/GI50 [9] was >134.9. For the same compound, the GI50 ([10]; Homo sapiens) was 933 nM, the CC50 [10, 29] was > 100 µM and the LC50/GI50 [10] was >107.2. For the same compound, the GI50 ([11]; Homo sapiens) was 389 nM, the CC50 [11, 29] was 24 µM and the LC50/GI50 [11] was 61.7. For the same compound, the LC50/GI50 [12] was >42.7, the GI50 ([12]; Homo sapiens, T47D) was 2340 nM and the CC50 ([12]; Homo sapiens, T47D, read-out: LC50 (the source's name)) was > 100 µM. The GI50 ([13]; Homo sapiens) was 2510 nM, the CC50 [13, 29] was > 100 µM and the LC50/GI50 [13] was >39.8. For the same compound, the GI50 ([14]; Homo sapiens) was 2630 nM, the CC50 [14, 29] was > 100 µM and the LC50/GI50 [14] was >38.0. For the same compound, the LC50/GI50 [15] was >34.7, the GI50 ([15]; Homo sapiens) was 2880 nM and the CC50 [15, 29] was > 100 µM. For the same compound, the GI50 ([16]; Homo sapiens) was 3.24 µM, the LC50/GI50 [16] was >30.9 and the GI50 ([17]; Homo sapiens) was 3.24 µM. For the same compound, the CC50 [17, 29] was > 100 µM, the LC50/GI50 [17] was >30.9 and the GI50 ([18]; Homo sapiens) was 2630 nM. It also gave a CC50 [18, 29] of 56.2 µM, an LC50/GI50 [18] of 21.4 and an LC50/GI50 [19] of 9.3. For the same compound, the GI50 ([19]; Homo sapiens) was 2950 nM, the CC50 [19, 29] was 27.5 µM and the GI50 ([20]; Homo sapiens, TK-10) was 2750 nM. For the same compound, the CC50 ([20]; Homo sapiens, TK-10, Renal Cancer, read-out: LC50 (the source's name)) was 23.4 µM, the LC50/GI50 ([20]; TK-10, Renal Cancer) was 8.5 and the GI50 ([21]; Homo sapiens) was 1150 nM. For the same compound, the CC50 [21, 29] was 9.55 µM, the LC50/GI50 [21] was 8.3 and the GI50 ([22]; Homo sapiens) was 1440 nM. It also gave a CC50 [22, 29] of 8.91 µM, an LC50/GI50 [22] of 6.2 and a GI50 ([23]; Homo sapiens) of 1740 nM. The CC50 [23, 29] was 8.51 µM, the LC50/GI50 [23] was 4.9 and the GI50 ([24]; Homo sapiens) was 1950 nM. For the same compound, the CC50 [24, 29] was 8.91 µM, the LC50/GI50 [24] was 4.6 and the LC50/GI50 [25] was 4.1. The GI50 ([25]; Homo sapiens) was 1580 nM, the CC50 [25, 29] was 6.46 µM and the GI50 ([26]; Homo sapiens) was 1820 nM. The CC50 [26, 29] was 7.24 µM, the LC50/GI50 [26] was 4.0 and the GI50 ([27]; Homo sapiens) was 1700 nM. For the same compound, the CC50 [27, 29] was 6.17 µM, the LC50/GI50 [27] was 3.6 and the pIC50 [28] was ~2.62.
